Measurements published in ChEMBL document CHEMBL1124452, “New sensitizers for photodynamic therapy: controlled synthesis of purpurins and their effect on normal tissue” (1989).

Tested on: Rattus norvegicus
Test: In vivo cytotoxicity to the FANFT-induced urothelial cell carcinoma transplanted onto Fischer CDF (F344/CrlBR) rats (Tumoricidal activity)
Type: functional

CCOC(=O)C1=Cc2c3nc(cc4nc(cc5[nH]c(cc6[nH]c2c(C)c6CC)c(C)c5CC)C(C)=C4CC)C(C)C13CC (configuration not stated) [ETIOPURPURIN]
Therapeutic dose: 2.5 mg/kg

CCOC(=O)C1=Cc2c3nc(cc4nc(cc5[nH]c(cc6[nH]c2c(CC)c6CC)c(CC)c5CC)C(CC)=C4CC)C(CC)C13CC (configuration not stated) [OCTAETHYLPURPURIN]
Therapeutic dose: 5 mg/kg
